The target of the experiment is Glutamate receptor ionotropic, NMDA 1 (Rattus norvegicus, UniProt P35439). Put plainly: In Vitro Activity Assay. An excerpt:
In Vitro Activity: Evaluation of NMDAR Blocking Activity Using Patch-ClampPrevious studies have shown that the NMDAR exists in the peripheral vasculature.All NMDAR subunits were examined by RT-PCR and sequencing in the peripheral endothelium and peripheral vascular smooth muscle cells.

SMILES strings stand for the structures.

For orientation: IC50 means the concentration that gives 50% inhibition. The low end stands for greater potency in that assay, the high end for weaker potency in that assay. The compound `CC[N@@+]1(CCO)[C@H]2Cc3ccccc3[C@@]1(C)c1ccccc12` [US11944616, Compound 27] had an IC50 of 0.36 µM.
